Like-named read-outs stand apart in the source and are kept apart here.
Legend:
[1] = test system: rat mesenteric artery smooth muscle cells; experiment: Ca2+ flux in response to Angiotensin II in isolated rat mesenteric artery smooth muscle cells (FLIPR); format: cell-based; conditions: for inhibition at 1 µM / inhibition at 10 µM: Rattus norvegicus; for inhibition at 1 µM: read-out: % inhibition 1 μM; for inhibition at 10 µM: read-out: % inhibition 10 μM
Procedure: Mesenteric artery smooth muscle cells were isolated from male Sprague-Dawley rats (200-250 g). Mesenteric arteries were dissected, cleared of extraneous tissue and incubated in an enzyme solution containing collagenase type I (1 mg/ml), soybean trypsin inhibitor (0.25 mg/ml), bovine albumin (1 mg/ml), CaCl2 (0.2 mM), 100 U/ml penicillin (100 U/ml) and streptomycin (100 μg/ml) in a humidified incubator with 5% CO2 in air. The enzyme solution was replenished at 30 min intervals and cells were pelleted by centrifugation (200 g, 5 min) and differentially plated (×2) for 15 min in Dulbecco's Modified Eagle's Medium (DMEM) supplemented with penicillin (100 U/ml), streptomycin (100 μg/ml), L-Glutamine (2 mM) and 10% heat inactivated New Zealand foetal calf serum. Cells were passaged by trypsinisation and viability determined by trypan blue exclusion.
Measurements of Ca^2+ flux in response to Angiotensin II were conducted using a Fluorescent Imaging Plate Reader (FLIPR; Molecular Devices). Cells were plated at a density of 10,000 cells/well into black, clear-bottomed 96-well plates in DMEM supplemented with penicillin (100 U/ml), streptomycin (100 μg/ml), L-Glutamine (2 mM) and 10% heat inactivated New Zealand foetal calf serum. 24 hrs later the cells were incubated with Fluo-3-AM (4 μM) for 60 min at 37° C. Once dye-loaded, the cells were washed thoroughly with the proprietary assay buffer to remove any unincorporated dye. The cells were then incubated with varying concentrations of a number of representative NPR-C agonist molecules of the invention, C-type natriuretic peptide or vehicle (DMSO) and placed into the FLIPR. After 15 mins, Angiotensin II (100 nM) was automatically dispensed into each well and the fluorescence signal followed for 5 mins. Potency was determined by comparison of the peak fluorescence in each test well (run in triplicate) with that of the control (Angiotensin II alone). Background fluorescence (assay buffer only) was subtracted from all values.

rat mesenteric arteries = experiment: Vasoreactivity in rat mesenteric arteries in vitro (relaxation of U46619-contracted vessels, tension myograph); conditions: for EC50: vasorelaxation, calculated from concentration-response curves
Procedure: Male rats (Sprague-Dawley; 200-250 g) were stunned and killed by cervical dislocation. The mesentery was removed and third-order arteries mounted in an automated tension myograph (Danish Myotechnology). After an equilibration period of 45 min, vessels were normalized and diameter determined. Following normalization, each vessel was contracted repeatedly with the thromboxane A2-mimetic 9,11-dideoxy-11^α,9^α-epoxymethano-prostaglandin F2α (U46619; 1 μM) until the response was reproducible. The vessels were then washed to restore basal tone before contracting to approximately 50% of the maximum U46619-induced response. Once a stable response to U46619 was achieved, cumulative concentration-response curves were constructed with a variety of NPR-C agonists of the invention at varying concentrations (0.001-30 μM), or vehicle (DMSO). In some studies, concentration-response curves to NPR-C agonists were conducted in the presence of the NPR-C antagonist M372049 (10 μM). Only one curve to any one agonist was constructed in any single tissue.

Human NPR-C = Human NPR-C (Homo sapiens (Human), UniProt P17342); experiment: Surface plasmon resonance (SPR) spectroscopy, binding to immobilised human NPR-C; conditions: FIGS. 5, 6 and 7
Chain of Human NPR-C (P17342 27-541): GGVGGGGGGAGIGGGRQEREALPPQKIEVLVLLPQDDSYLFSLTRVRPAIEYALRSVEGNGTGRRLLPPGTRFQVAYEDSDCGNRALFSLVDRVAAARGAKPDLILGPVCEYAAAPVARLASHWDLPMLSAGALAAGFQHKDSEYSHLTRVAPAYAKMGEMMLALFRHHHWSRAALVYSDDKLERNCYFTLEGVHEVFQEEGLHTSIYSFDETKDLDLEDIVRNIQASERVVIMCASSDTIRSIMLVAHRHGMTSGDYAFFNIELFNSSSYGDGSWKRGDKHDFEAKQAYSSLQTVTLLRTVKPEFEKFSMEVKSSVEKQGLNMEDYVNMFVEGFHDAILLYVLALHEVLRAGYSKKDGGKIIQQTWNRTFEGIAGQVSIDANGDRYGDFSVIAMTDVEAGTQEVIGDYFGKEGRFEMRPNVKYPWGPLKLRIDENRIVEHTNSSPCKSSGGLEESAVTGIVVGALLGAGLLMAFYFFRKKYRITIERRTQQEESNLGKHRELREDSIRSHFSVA
Procedure: All SPR analysis was performed on a BIAcore T200 system using series S CM5 sensor chips. Data processing and analysis were performed using BIAevaluation software and Scrubber2. All sensorgrams were double referenced by subtracting the response on a reference flowcell and a blank sample.
Human NPR-C (OriGene, Rockville, USA), was covalently attached to a CM5 chip via amine coupling. A surface density of 2700 RU was used for measurements with natriuretic peptides and the NPR-C antagonist M372049, and a density of 5200 RU for measurements with compound 118. Sequential injections of CNP (0.25, 0.50, 1, 2 & 4 nM) were performed at a flow rate of 30 μL/min for (240 s for each), followed by a dissociation time of 3600 s. Binding site saturation was observed and the surface was regenerated by two injections of 1M NaCl (200 s each). Binding of M372049 (0.94, 1.88, 3.75, 7.5, 15, 30 & 60 nM) and Compound 118 (1.17, 2.34, 4.70, 9.38, 18.75, 37.50, 75 & 150 μM) was analysed by sequential injections (120 s for M372049, 30 s for compound 118) followed by undisturbed dissociation (600 s for M372049, 30 s for compound 118), during which curves returned to baseline. Kinetic parameters were calculated assuming a simple 1:1 (Langmuir) binding.

[2] = 1 μM compound, inhibition of Angiotensin II (100 nM) Ca2+ flux peak fluorescence
[3] = 10 μM compound, inhibition of Angiotensin II (100 nM) Ca2+ flux peak fluorescence
[4] = 1 μM, U46619-contracted third-order arteries
[5] = 3 μM, U46619-contracted third-order arteries
[6] = 10 μM, U46619-contracted third-order arteries
[7] = 30 μM, U46619-contracted third-order arteries

Compound	% inhibition 1 μM [1, 2]	% inhibition 10 μM [1, 3]	also measured
CC(C)C[C@H](NC(=O)c1cn(Cc2ccccc2)c2ccc(Br)cc2c1=O)C(=O)OC(C)(C)C [Compound 60, (S)-tert-butyl 2-(1-benzyl-6-bromo-4-oxo-1,4-dihydroquinoline-3-carboxamido)-4-methylpentanoate]	–	–	inhibition at 1 µM [1, 2]: 0%; inhibition at 10 µM [1, 3]: 80%
CC(C)(C)OC(=O)[C@H](Cc1ccccc1)NC(=O)c1cn(Cc2ccccc2)c2ccc(Br)cc2c1=O [Compound 61, (S)-tert-butyl 2-(1-benzyl-6-bromo-4-oxo-1,4-dihydroquinoline-3-carboxamido)-3-phenylpropanoate]	–	–	inhibition at 1 µM [1, 2]: 27%; inhibition at 10 µM [1, 3]: 100%
CC(C)(C)OC(=O)CNC(=O)c1cn(Cc2ccccc2)c2ccc(Br)cc2c1=O [Compound 62]	0%	50%	–
CC(C)[C@H](NC(=O)c1cn(Cc2ccccc2)c2ccc(Br)cc2c1=O)C(=O)OC(C)(C)C [Compound 63, (S)-tert-butyl 2-(1-benzyl-6-bromo-4-oxo-1,4-dihydroquinoline-3-carboxamido)-3-methylbutanoate]	–	–	inhibition at 1 µM [1, 2]: 58%; inhibition at 10 µM [1, 3]: 100%
CCOC(=O)c1c[nH]c2ccccc2c1=O [Compound 84, ethyl 4-oxo-1,4-dihydroquinoline-3-carboxylate]	–	–	inhibition at 1 µM [1]: 40%; inhibition at 10 µM [1]: 45%
CCOC(=O)c1cn(Cc2ccccc2)c2ccccc2c1=O [Compound 85, ethyl 1-benzyl-4-oxo-1,4-dihydroquinoline-3-carboxylate]	–	–	inhibition at 1 µM [1, 2]: 0%; inhibition at 10 µM [1, 3]: 97%
O=C(O)c1cn(Cc2ccccc2)c2ccccc2c1=O [Compound 86, 1-benzyl-4-oxo-1,4-dihydroquinoline-3-carboxylic acid]	–	–	inhibition at 1 µM [1, 2]: 0%; inhibition at 10 µM [1, 3]: 45%
CC(C)(C)OC(=O)CNC(=O)c1cn(Cc2ccccc2)c2ccccc2c1=O [Compound 87, tert-butyl 2-(1-benzyl-4-oxo-1,4-dihydroquinoline-3-carboxamido)acetate]	–	–	inhibition at 1 µM [1, 2]: 0%; inhibition at 10 µM [1, 3]: 67%
CC(C)[C@H](NC(=O)c1cn(Cc2ccccc2)c2ccccc2c1=O)C(=O)OC(C)(C)C [Compound 88, (S)-tert-butyl 2-(1-benzyl-4-oxo-1,4-dihydroquinoline-3-carboxamido)-3-methylbutanoate]	–	–	inhibition at 1 µM [1, 2]: 12%; inhibition at 10 µM [1, 3]: 55%
CC(C)c1cccc2c(=O)c(C(=O)O)c[nH]c12 [Compound 103]	0%	65%	–
COc1ccc2[nH]cc(C(=O)O)c(=O)c2c1 [Compound 104]	0%	69%	–
CC(=O)c1ccc2[nH]cc(C(=O)O)c(=O)c2c1 [Compound 105]	80%	100%	–
O=C(O)c1ccc2c(=O)c(C(=O)O)c[nH]c2c1 [Compound 106]	90%	90%	–
Cc1cccc2c(=O)c(C(=O)O)c[nH]c12 [Compound 107]	15%	100%	–
CN(C)c1ccc2[nH]cc(C(=O)O)c(=O)c2c1 [Compound 108]	0%	90%	–
O=C(O)c1c[nH]c2c(C(=O)O)cccc2c1=O [Compound 109]	18%	100%	–

Compound	% inhibition 1 μM [1, 2]	% inhibition 10 μM [1, 3]	also measured
O=C(O)c1c[nH]c2cc(C(F)(F)F)ccc2c1=O [Compound 110]	70%	100%	–
O=C(O)c1ccc2[nH]cc(C(=O)O)c(=O)c2c1 [Compound 111]	100%	100%	–
Cc1ccc2[nH]cc(C(=O)O)c(=O)c2c1 [Compound 112]	100%	100%	–
O=C(O)c1c[nH]c2ccc(Br)cc2c1=O [Compound 113]	12%	100%	–
O=C(O)c1c[nH]c2ccc(F)cc2c1=O [Compound 114]	100%	100%	–
CC(C)C(NC(=O)c1cn(Cc2ccccc2)c2ccccc2c1=O)C(=O)O (stereo not drawn) [Compound 116]	80%	100%	% relaxation 1 μM (rat mesenteric arteries; [4]): 4%; % relaxation 3 μM (rat mesenteric arteries; [5]): 0%; % relaxation 10 μM (rat mesenteric arteries; [6]): 0%; % relaxation 30 μM (rat mesenteric arteries; [7]): 9%
O=C(O)CNC(=O)c1cn(Cc2ccccc2)c2ccccc2c1=O [Compound 117, 2-(1-benzyl-4-oxo-1,4-dihydroquinoline-3-carboxamido)acetic acid]	–	–	inhibition at 1 µM (rat mesenteric arteries; Rattus norvegicus, 1 μM, U46619-contracted third-order arteries): 0%; inhibition at 3 µM (rat mesenteric arteries; Rattus norvegicus, 3 μM, U46619-contracted third-order arteries): 0%; inhibition at 10 µM (rat mesenteric arteries; Rattus norvegicus, 10 μM, U46619-contracted third-order arteries): 2%; inhibition at 30 µM (rat mesenteric arteries; Rattus norvegicus, 30 μM, U46619-contracted third-order arteries): 42%; EC50 (rat mesenteric arteries; Rattus norvegicus): > 50 µM; inhibition at 1 µM [1, 2]: 87%; inhibition at 10 µM [1, 3]: 100%
CC(C)C(NC(=O)c1cn(Cc2ccccc2)c2ccc(Br)cc2c1=O)C(=O)O (stereo not drawn) [Compound 119]	80%	100%	% relaxation 1 μM (rat mesenteric arteries; [4]): 2%; % relaxation 3 μM (rat mesenteric arteries; [5]): 5%; % relaxation 10 μM (rat mesenteric arteries; [6]): 26%; % relaxation 30 μM (rat mesenteric arteries; [7]): 94%; EC50 (rat mesenteric arteries): > 50 µM
O=C(O)c1cn(C2CC2)c2cc(N3CCNCC3)c(F)cc2c1=O [Compound 134]	55%	80%	–
CC1COc2c(N3CCN(C)CC3)c(F)cc3c(=O)c(C(=O)O)cn1c23 (stereo not drawn) [Compound 136]	15%	20%	–
CC1COc2c(N3CCN(C)CC3)c(F)cc3c(=O)c(C(=O)O)cn1c23 (stereo not drawn) [Compound 138]	11%	40%	–
C[C@@H]1CN(c2c(F)c(N)c3c(=O)c(C(=O)O)cn(C4CC4)c3c2F)C[C@H](C)N1 [Compound 141]	0%	28%	–
CC1CCc2c(N3CCC(O)CC3)c(F)c(N)c3c(=O)c(C(=O)O)cn1c23 (stereo not drawn) [Compound 142]	18%	75%	–
CN1CCN(c2cc3c(cc2F)c(=O)c(C(=O)O)cn3-c2ccc(F)cc2)CC1 [Compound 144]	23%	40%	–
CC[C@H](C)[C@H](NC(=O)[C@@H](CCCN=C(N)N)NC(=O)[C@H](CC(=O)O)NC(=O)[C@H]([C@@H](C)CC)N1CC[C@@H](NC(=O)Cc2ccc(NC(=O)c3cnc4ccccc4n3)cc2)C1=O)C(N)=O [Compound M372049]	–	–	binding to human NPR-C (SPR) (Human NPR-C): binding
